Source: PubChem BioAssay (NCI)
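Tested at 5 concentrations; 48 h exposure; 96-well plates; endpoints linearly interpolated, else capped at highest concentration. GI50 marks 50% less growth. TGI denotes the concentration required for complete inhibition of growth.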

Experiments:
Test in all cases: NCI tumour cell line growth inhibition, 48 h
786-0 renal = tested on: 786-0 renal
A498 renal = tested on: A498 renal
COLO 205 colon = tested on: COLO 205 colon
HL-60(TB) leukemia = tested on: HL-60(TB) leukemia
HT29 colon = tested on: HT29 colon
M14 melanoma = tested on: M14 melanoma
NCI-H226 lung = tested on: NCI-H226 lung
NCI-H23 lung = tested on: NCI-H23 lung
OVCAR-4 ovarian = tested on: OVCAR-4 ovarian
RXF 393 renal = tested on: RXF 393 renal
SK-MEL-28 melanoma = tested on: SK-MEL-28 melanoma
SW-620 colon = tested on: SW-620 colon
DU-145 prostate = tested on: DU-145 prostate
MCF7 breast = tested on: MCF7 breast
MDA-MB-231 breast = tested on: MDA-MB-231 breast
PC-3 prostate = tested on: PC-3 prostate
BT-549 breast = tested on: BT-549 breast

| SMILES | TGI (786-0 renal) | TGI (A498 renal) | TGI (COLO 205 colon) | TGI (HL-60(TB) leukemia) | TGI (HT29 colon) | TGI (M14 melanoma) | TGI (NCI-H226 lung) | TGI (NCI-H23 lung) | TGI (OVCAR-4 ovarian) | TGI (RXF 393 renal) | TGI (SK-MEL-28 melanoma) | TGI (SW-620 colon) | TGI (DU-145 prostate) | TGI (MCF7 breast) | TGI (MDA-MB-231 breast) | TGI (PC-3 prostate) | TGI (BT-549 breast) | GI50 (MCF7 breast) | GI50 (OVCAR-4 ovarian) | GI50 (RXF 393 renal) |
| --- | --- | --- | --- | --- | --- | --- | --- | --- | --- | --- | --- | --- | --- | --- | --- | --- | --- | --- | --- | --- |
| O=C1c2ccccc2OP(=O)(OCC(F)(F)F)OC1(C(F)(F)F)C(F)(F)F (stereo unspecified) | > 100 µM | > 100 µM | > 100 µM | > 100 µM | > 100 µM | > 100 µM | > 100 µM | > 100 µM | > 100 µM | > 100 µM | > 100 µM | > 100 µM | – | – | – | – | – | – | – | – |
| Nc1nc(SCc2ccc([N+](=O)[O-])cc2)nc2c1ncn2C1OC(CO)C(O)C1O (stereo unspecified) | > 100 µM | > 100 µM | > 100 µM | > 100 µM | > 100 µM | – | > 100 µM | > 100 µM | > 100 µM | > 100 µM | > 100 µM | > 100 µM | – | – | – | – | – | – | – | – |
| C=CCOC(=O)NC1C(OC(C)[C@@H](NC(=O)OCc2ccccc2)C(=O)OC(C)(C)C)OC(COC(C)=O)C(OC(C)=O)C1OC(C)=O (stereo partly specified) | > 100 µM | > 100 µM | > 100 µM | > 100 µM | > 100 µM | > 100 µM | > 100 µM | > 100 µM | > 100 µM | > 100 µM | > 100 µM | > 100 µM | > 100 µM | > 100 µM | 96.2 µM | > 100 µM | – | – | – | – |
| COc1ccc(N=Cc2ccc(N(CCC#N)S(=O)(=O)c3ccccc3)cc2)cc1 | > 100 µM | > 100 µM | > 100 µM | > 100 µM | > 100 µM | > 100 µM | > 100 µM | > 100 µM | > 100 µM | > 100 µM | > 100 µM | > 100 µM | – | – | – | – | – | – | – | – |
| CCOP(=O)(OCC)C(Nc1ccc(Br)cc1)c1cccc([N+](=O)[O-])c1 (stereo unspecified) | 44.8 µM | 31.1 µM | 26 µM | 55.1 µM | 34.3 µM | 37 µM | 38.3 µM | 53 µM | > 100 µM | 31.5 µM | 60 µM | 35.4 µM | > 100 µM | – | 43.2 µM | – | – | – | – | – |
| O=S(Nc1ccccc1)c1cccc(Cl)c1 (stereo unspecified) | > 100 µM | – | > 100 µM | > 100 µM | > 100 µM | > 100 µM | > 100 µM | > 100 µM | – | > 100 µM | > 100 µM | > 100 µM | > 100 µM | > 100 µM | > 100 µM | > 100 µM | – | – | – | – |
| C=CCNC(=O)N(CCCC(NC(C)=O)C(=O)NCc1ccccc1)Cc1ccccc1 (stereo unspecified) | > 100 µM | > 100 µM | > 100 µM | > 100 µM | > 100 µM | > 100 µM | > 100 µM | > 100 µM | > 100 µM | > 100 µM | > 100 µM | > 100 µM | – | – | – | – | – | – | – | – |
| Cc1ccc(N2C(=O)CS/C2=C(\C#N)c2nc3ccccc3[nH]2)cc1 | > 100 µM | > 100 µM | > 100 µM | > 100 µM | – | > 100 µM | > 100 µM | > 100 µM | > 100 µM | – | > 100 µM | > 100 µM | – | – | – | – | – | – | – | – |
| Cc1ccc(N(C(=O)Nc2ccccc2)C2=NCC(C)S2)cc1C (stereo unspecified) | 46.6 µM | 47.9 µM | 41.6 µM | 63.7 µM | 41.9 µM | 28.4 µM | – | 42.5 µM | > 100 µM | – | 31.2 µM | 62.9 µM | > 100 µM | 71.9 µM | 45 µM | > 100 µM | – | – | – | – |
| Cn1c(O)c(C=Nc2ccccc2[N+](=O)[O-])c(=O)n(C)c1=O | > 100 µM | > 100 µM | > 100 µM | – | > 100 µM | > 100 µM | > 100 µM | > 100 µM | > 100 µM | > 100 µM | – | > 100 µM | – | – | > 100 µM | > 100 µM | > 100 µM | – | – | – |
| COc1cccc([C@H]2C/C(=N\NC(=O)C(=O)N[C@@H](C)c3ccccc3)c3ccccc3N2)c1 | 97.3 µM | > 100 µM | 13.1 µM | – | – | > 100 µM | 3.03 µM | – | > 100 µM | > 100 µM | > 100 µM | > 100 µM | 15.6 µM | > 100 µM | 41.4 µM | > 100 µM | – | 0.0306 µM | 45.3 µM | 0.0303 µM |
| CN1c2ccccc2N(C(=O)c2ccc(Cl)cc2)C(CC(=O)O)c2cccn21 (stereo unspecified) | > 100 µM | > 100 µM | > 100 µM | > 100 µM | > 100 µM | > 100 µM | > 100 µM | > 100 µM | > 100 µM | > 100 µM | > 100 µM | > 100 µM | – | – | – | – | – | – | – | – |
| CCC12CCCN(Cc3ccccc3)C1c1c(n(C)c3ccccc13)C(C(=O)OC)C2 (stereo unspecified) | > 239 µM | – | > 239 µM | > 239 µM | > 239 µM | – | > 239 µM | > 239 µM | – | > 239 µM | > 239 µM | > 239 µM | – | – | – | – | – | – | – | – |
| CCOP(=O)(OCC)C(C)(CC)N/C(=N/C(NC(C)=O)(C(F)(F)F)C(F)(F)F)NC1=NC(C(F)(F)F)(C(F)(F)F)N=C(C(F)(F)F)O1 (stereo unspecified) | > 100 µM | > 100 µM | 29.8 µM | 45.8 µM | > 100 µM | 64.7 µM | 70.1 µM | 91.5 µM | 84.2 µM | 93.8 µM | > 100 µM | > 100 µM | > 100 µM | 68.8 µM | 48.7 µM | 77.6 µM | – | – | – | – |
| CN1CCN(c2ncc3c(n2)sc2c(=O)n(-c4ccccc4)cnc23)CC1 | > 100 µM | > 100 µM | > 100 µM | – | > 100 µM | > 100 µM | > 100 µM | > 100 µM | > 100 µM | > 100 µM | > 100 µM | > 100 µM | > 100 µM | – | > 100 µM | > 100 µM | > 100 µM | – | – | – |
| N#Cc1c(-c2ccc([N+](=O)[O-])cc2)c(C#N)c(=O)n(NS(=O)(=O)c2ccccc2)c1-c1ccccc1 | > 100 µM | > 100 µM | > 100 µM | > 100 µM | > 100 µM | > 100 µM | > 100 µM | – | > 100 µM | > 100 µM | > 100 µM | > 100 µM | – | > 100 µM | > 100 µM | > 100 µM | > 100 µM | – | – | – |
